Reference: patent EP1572665B1, “1-N-PHENYLAMINO-1H-IMIDAZOLE DERIVATIVES AS AROMATASE INHIBITORS” (LABORATOIRE THERAMEX, priority 2002, dated 2004)
Where a name gives a salt, the structure may show the parent alone.

Legend:
aromatase = molecular target: T1, aromatase (Rattus norvegicus, UniProt P22443); assay: Inhibition of aromatase in vivo (inhibition of the preovulatory surge of plasma estradiol levels); conditions: adult female Wistar rats, single oral administration of 10 micrograms/kg on diestrus, plasma estradiol 24 hours later, vs vehicle controls, n = number of independent studies; for inhibition at 0.01 mg/kg: rat, read-out: % inhibition at 10 µg/kg
T1 construct: In the rat, estradiol is physiologically synthesized to high circulating levels; from tissue; host or cells: whole animal: adult female Wistar rats (endogenous aromatase)
T1 sequence (P22443 1-508): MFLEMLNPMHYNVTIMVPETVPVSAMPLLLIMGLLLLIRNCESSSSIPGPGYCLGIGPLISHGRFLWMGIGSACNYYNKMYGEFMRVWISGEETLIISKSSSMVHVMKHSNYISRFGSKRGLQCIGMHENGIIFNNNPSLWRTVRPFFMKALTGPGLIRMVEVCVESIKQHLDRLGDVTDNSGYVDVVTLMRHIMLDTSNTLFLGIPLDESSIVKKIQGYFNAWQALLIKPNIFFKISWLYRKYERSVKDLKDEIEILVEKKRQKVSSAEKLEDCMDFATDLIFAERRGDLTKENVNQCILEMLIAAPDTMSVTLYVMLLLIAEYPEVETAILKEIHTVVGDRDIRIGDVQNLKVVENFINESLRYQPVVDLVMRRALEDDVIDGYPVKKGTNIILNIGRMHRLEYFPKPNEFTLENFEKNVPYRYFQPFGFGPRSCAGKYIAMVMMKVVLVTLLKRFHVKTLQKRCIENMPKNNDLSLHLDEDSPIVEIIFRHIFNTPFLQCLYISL
From the text: Aromatase is the steroidogenic enzyme responsible for the biosynthesis of estradiol, the main female sex hormone among estrogens. In the rat, estradiol is physiologically synthesized to high circulating levels in a particular period during the 4-day estrous cycle : it is the so-called preovulatory surge taking place in the afternoon of proestrus, just before ovulation which occurs during the night between proestrous and estrous phases. A sensitive physiological model for in vivo evaluation of aromatase inhibition was developped based on the inhibition of this preovulatory surge of estradiol levels.
Adult female Wistar rats are monitored for regular 4-day estrous cyclicity by daily vaginal smear examination; after 2 or 3 regular cycles, animals are treated by a single oral administration of the very low discriminative dose of 10 micrograms/kg in a 4 ml/kg volume around 04:00 PM on diestrus, i.e. on the day before proestrus. Precisely 24 hours later, aortic blood samples are drawn under gaseous anesthesia. Plasma estradiol levels are measured by radioimmunoassay with commercially available kits (Diagnostic Systems Laboratories, Webster, Texas, U. S. A.). Control and test groups usually consist of 7 to 10 rats, depending on the number of regularly cycling rats to distribute among study groups. Results are expressed in pg/ml and then in % of inhibition taking the estradiol levels of control animals receiving only the oral vehicle as the 100 % reference to allow comparisons between different independent studies, since the preovulatory surge level may vary in each control group from one study to another between about 25 to 40 pg/ml. Table B : Inhibition of aromatase in vivo

human aromatase = molecular target: T2, human aromatase (Homo sapiens, UniProt P11511); assay: Inhibition of human aromatase in vitro in JEG-3 cells (3H-water release from 1β-3H-androstenedione); assay type: cell-based; conditions: JEG-3 cell line; 1β-3H-androstenedione 10 nM; 2 hours incubation; mean ± sem
T2 construct: The JEG-3 cell line, derived from a human placental choriocarcinoma, is intrinsically very rich in human aromatase; endogenous in cells; host or cells: JEG-3 (human placental choriocarcinoma)
T2 sequence (P11511 1-503): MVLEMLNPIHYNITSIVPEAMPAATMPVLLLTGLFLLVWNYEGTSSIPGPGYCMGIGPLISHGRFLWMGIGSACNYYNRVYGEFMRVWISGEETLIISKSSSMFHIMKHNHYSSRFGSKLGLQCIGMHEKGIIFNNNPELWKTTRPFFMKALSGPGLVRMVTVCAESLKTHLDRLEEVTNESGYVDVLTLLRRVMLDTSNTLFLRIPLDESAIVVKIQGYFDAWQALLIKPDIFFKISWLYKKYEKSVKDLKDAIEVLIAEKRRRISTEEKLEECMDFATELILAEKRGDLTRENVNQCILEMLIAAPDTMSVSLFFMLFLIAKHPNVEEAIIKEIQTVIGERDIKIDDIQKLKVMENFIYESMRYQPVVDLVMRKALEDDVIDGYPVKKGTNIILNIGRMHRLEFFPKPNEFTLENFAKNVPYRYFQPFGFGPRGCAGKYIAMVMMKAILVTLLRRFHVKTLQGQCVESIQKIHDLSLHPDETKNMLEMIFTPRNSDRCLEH
Protocol: Stocks of JEG-3 cells are grown up to 80 % of confluence as monolayers in plastic flasks in minimum Eagle's medium with 1 g/l glucose and 10 % decomplemented fetal calf serum at pH 7.4 and 37° C, under a 5 % CO2 atmosphere. Then, 24 hours before aromatase activity measurement, JEG-3 cells are distributed for seeding in 96-well microplates (60,000 to 100,000 viable cells in 100 µl of culture medium per well) ; 24 hours later, microplates are rinsed and fresh medium containing the radioactive aromatase substrate (1β-^3H-androstenedione, 10 nM) is added together with test compounds dissolved with 1 % dimethylsulfoxide in a test concentration range between 10^-11 and 10^-4 M in a total volume of 150 µl.
Two hours after the beginning of the incubation, 100 µl of the supernatants are transferred to homologous new 96-well microplates. A solution of dextran-coated charcoal (1 %) is added in each well (100 µl/well) ; after standing for 10 minutes on ice, microplates are centrifuged (1500 g) for 10 more minutes at 4° C. All steroids, including the radioactive substrate and the newly biosynthesized estrogens, are trapped complexed by the charcoal ; only ^3H-water specifically formed during aromatisation of 1β-^3H-androstenedione, involving a specific oxidative step removing the 1β-^3H, remains in the supernatant at this stage. […]

Compound | inhibition at 0.01 mg/kg (aromatase) [%] | IC50 (human aromatase) [nM] | % inhibition at 10 µg/kg (aromatase) [%]
CC(C)(C#N)c1cc(Cn2cncn2)cc(C(C)(C)C#N)c1 [Anastrozole, anastrozole, reference compound] | 18 to 33 |  | 
N#Cc1ccc(N(Cc2ccc(C(F)(F)F)cc2)n2ccnc2)cc1 [Example 6, 4-[N-(1H-imidazol-1-yl)-N-(4-trifluoromethylphenylmethyl)amino]-benzonitrile] | 57 |  | 
N#Cc1ccc(N(Cc2ccc(Cl)cc2)n2ccnc2)cc1 [Example 7, 4-[N-(1H-imidazol-1-yl)-N-(4-chlorophenylmethyl)amino]benzonitrile, hydrochloride] | 47 |  | 
N#Cc1ccc(CN(c2ccc(C#N)cc2)n2ccnc2)cc1 [Example 11, 4-[N-(1H-imidazol-1-yl)-N-(4-cyanophenylmethyl)amino]benzonitrile, hydrochloride] | 57 to 59 |  | 
N#Cc1ccc(N(Cc2ccc(F)cc2)n2ccnc2)cc1 [Example 14, 4-[N-(1H-imidazol-1-yl)-N-(4-fluorophenylmethyl)amino]benzonitrile, hydrochloride hemihydrate] | 49 to 57 |  | 
N#Cc1ccc(N(Cc2ccc(F)c(F)c2)n2ccnc2)cc1 [Example 17, 4-[N-(1H-imidazol-l-yl)-N-(3,4-difluorophenylmethyl)amino]benzonitrile] | 60 |  | 
N#Cc1ccc(N(Cc2ccc(Br)cc2)n2cnnc2)cc1 [YM 511, reference compound] |  | 0.3 ± 0.04 | 35
